Data taken from patent US8058243B2, “Method for treating a brain cancer with ifenprodil” (HSC Research and Development Limited Partnership, priority 2006, dated 2011).
Where two headings read alike, the source gives them in different places.

Test system: murine neural precursor cells (neurosphere cultures)
Assay: HTS of LOPAC library against secondary neurosphere cultures, MTT proliferation assay at 3 μM, day 7 (z score, P value)
Assay type: cell-based, mouse
[1] = primary LOPAC screen, 3 μM, MTT, neurosphere proliferation
[2] = yes/no: significantly inhibited neurosphere proliferation in the primary screen
[3] = LOPAC primary screen, neurosphere MTT proliferation, 3 μM, day 7
[4] = yes/no: significantly inhibited neurosphere proliferation (P<0.01) in primary screen
[5] = yes = significantly inhibited neurosphere proliferation (P<0.01) in the primary screen
[6] = yes/no: significantly inhibited neurosphere proliferation in primary screen
[7] = LOPAC library screen, 3 μM, MTT, neurosphere cultures
[8] = LOPAC screen, neurosphere MTT proliferation, 3 μM, day 7
[9] = LOPAC library screen at 3 μM, MTT, secondary neurosphere cultures, screened in singlets
[10] = LOPAC library screen, 3 μM, MTT, secondary neurosphere cultures, day 7
[11] = yes/no: significantly inhibited neurosphere proliferation (P<0.01) in the primary screen

In the case of `Cl.NCCc1ccc(O)cc1` [4-Hydroxyphenethylamine hydrochloride], the “Z Score” value is reported as 1.03, the Z score [1] is reported as 1.030 and the Activity [2] is reported as “no”.

For `O=C(O)C=Cc1c[nH]cn1` [4-Imidazoleacrylic acid], the “Z Score” value was −0.2635, the Z score [1] was −0.264 and the Activity [2] was “no”.

In the case of `Cl.OCc1c[nH]cn1` [4-Imidazolemethanol hydrochloride], the “Z Score” value is reported as −2.077, the Z score [3] is reported as −2.077 and the Activity [4] is reported as “no”.

In the case of `Cc1cn[nH]c1.Cl` [4-Methylpyrazole hydrochloride], the “Z Score” value is reported as 1.042, the Z score [3] is reported as 1.042 and the Activity [5] is reported as “no”.

In the case of `N#Cc1c(-c2ccccc2)no[n+]1[O-]` [4-Phenyl-3-furoxancarbonitrile], the “Z Score” value (168 h, 3 µM) is reported as 0.9313, the Z score (168 h, 3 µM) is reported as 0.931 and the Activity [6] is reported as “no”.

`CC1(C)CCC=[N+]1[O-]` [5,5-Dimethyl-1-pyrroline-N-oxide] was tested, and the “Z Score” value (168 h, 3 µM) was −1.666, the Z score (168 h, 3 µM) was −1.666 and the Activity [4] was “no”.

`O=C1NC(=O)C(c2ccccc2)(c2ccccc2)N1` [5,5-Diphenylhydantoin] was tested, and the “Z Score” value [7] was 1.383, the Z score [8] was 1.383 and the Activity [4] was “no”.

For `O=C(O)c1cc(=O)c2c(Cl)cc(Cl)cc2[nH]1` [5,7-Dichlorokynurenic acid], the “Z Score” value [7] was 0.9011, the Z score [3] was 0.901 and the Activity [4] was “no”.

With `CN(C)c1nc(N)c(C(=O)NC(=N)N)nc1Cl.Cl` [5-(N,N-Dimethyl)amiloride hydrochloride] the “Z Score” value was 2.396, the Z score [1] was 2.396 and the Activity [2] was “no”.

In the case of `N=C(N)NC(=O)c1nc(Cl)c(N2CCCCCC2)nc1N` [5-(N,N-hexamethylene)amiloride], the “Z Score” value [7] is reported as 0.03855, the Z score [1] is reported as 0.039 and the Activity [2] is reported as “no”.

In the case of `CCN(c1nc(N)c(C(=O)N=C(N)N)nc1Cl)C(C)C` [5-(N-Ethyl-N-isopropyl)amiloride], the “Z Score” value is reported as −0.2886, the Z score [1] is reported as −0.289 and the Activity [2] is reported as “no”.

`CC(C)CN(C)c1nc(N)c(C(=O)N=C(N)N)nc1Cl` [5-(N-Methyl-N-isobutyl)amiloride] was tested, and the “Z Score” value [9] was 1.871, the Z score [1] was 1.871 and the Activity [2] was “no”.

For `Cl.NCCCCC(=O)O` [5-Aminovaleric acid hydrochloride], the “Z Score” value (168 h, 3 µM) was −1.67, the Z score (168 h, 3 µM) was −1.670 and the Activity [6] was “no”.

With `O=c1[nH]c(=O)n([C@H]2C[C@H](O)[C@@H](CO)O2)cc1Br` [5-Bromo-2′-deoxyuridine] the Z score [8] was 2.580 and the Activity [4] was “no”.

For `NCCc1c[nH]c2ccc(C(N)=O)cc12.O=C(O)/C=C\C(=O)O` [5-Carboxamidotryptamine maleate], the “Z Score” value [9] was 1.667, the Z score [8] was 1.667 and the Activity [4] was “no”.

`O=C(O)c1cc2cc(F)ccc2[nH]1` [5-Fluoroindole-2-carboxylic acid] was tested, and the “Z Score” value was −0.007549 and the Z score was −0.008.

`O=c1[nH]cc(F)c(=O)[nH]1` [5-Fluorouracil] was tested, and the “Z Score” value [10] was −7.749, the Z score [3] was −7.749 and the Activity [5] was “yes”.

`N[C@@H](Cc1c[nH]c2ccc(O)cc12)C(=O)O` [5-Hydroxy-L-tryptophan] was tested, and the “Z Score” value [7] was 0.03011, the Z score [3] was 0.030 and the Activity [4] was “no”.

With `O=C(O)Cc1c[nH]c2ccc(O)cc12` [5-Hydroxyindolacetic acid] the “Z Score” value [10] was −1.301, the Z score [3] was −1.301 and the Activity [4] was “no”.

For `O=C(O)c1cc([N+](=O)[O-])ccc1NCCCc1ccccc1` [5-Nitro-2-(3-phenylpropylamino)benzoic acid], the “Z Score” value (168 h, 3 µM) was −0.7343, the Z score (168 h, 3 µM) was −0.734 and the Activity [5] was “no”.

For `Nc1ncn([C@@H]2O[C@H](CO)[C@@H](O)[C@H]2O)c(=O)n1` [5-azacytidine], the “Z Score” value [10] was −1.398, the Z score [1] was −1.398 and the Activity [2] was “no”.

`C[C@H]1O[C@@H](n2cc(F)c(=O)[nH]c2=O)[C@H](O)[C@@H]1O` [5-fluoro-5′-deoxyuridine] was tested, and the “Z Score” value [7] was 0.3787, the Z score [3] was 0.379 and the Activity [4] was “no”.

With `CCCCCC(O)CCCC(=O)O.[Na]` (stereo not shown) [5-hydroxydecanoic acid sodium] the “Z Score” value (168 h, 3 µM) was 0.2332, the Z score (168 h, 3 µM) was 0.233 and the Activity [4] was “no”.

With `C[C@]12CC[C@@H](O)C[C@@H]1CC[C@@H]1[C@@H]2CC[C@]2(C)[C@@H](O)CC[C@@H]12` [5alpha-Androstane-3alpha,17beta-diol] the Z score [1] was −0.381 and the Activity [2] was “no”.

With `C[C@]12CC[C@@H](O)C[C@@H]1CC[C@@H]1[C@@H]2CC[C@]2(C)[C@@H](O)CC[C@@H]12` [5alpha-Androstane-3alpha, 17beta-diol] the “Z Score” value was −0.3811.

`CC(=O)[C@H]1CC[C@H]2[C@@H]3CC[C@H]4C[C@H](O)CC[C@]4(C)[C@H]3C(=O)C[C@]12C` [5alpha-Pregnan-3alpha-ol-11,20-dione] was tested, and the “Z Score” value was −0.8078 and the Z score [3] was −0.808.

`CC(=O)[C@H]1CC[C@H]2[C@@H]3CC[C@H]4C[C@H](O)CC[C@]4(C)[C@H]3CC[C@]12C` [5alpha-Pregnan-3alpha-ol-20-one] was tested, and the “Z Score” value was 0.9335, the Z score [3] was 0.934 and the Activity [6] was “no”.

With `Nc1ncnc2c1ncn2[C@@H]1O[C@H](C(=O)NC2CC2)[C@@H](O)[C@H]1O` [5′-(N-Cyclopropyl)carboxamidoadenosine] the “Z Score” value was −1.701, the Z score [8] was −1.701 and the Activity [4] was “no”.

With `CCNC(=O)[C@H]1O[C@@H](n2cnc3c(N)ncnc32)[C@H](O)[C@@H]1O` [5′-N-Ethylcarboxamidoadenosine] the “Z Score” value [10] was −2.587, the Z score [3] was −2.587 and the Activity [11] was “yes”.

With `CNC(=O)[C@H]1O[C@@H](n2cnc3c(N)ncnc32)[C@H](O)[C@@H]1O` [5′-N-Methyl carboxamidoadenosine] the “Z Score” value was −2.582, the Z score [3] was −2.582 and the Activity [11] was “yes”.

With `O=c1[nH]c2ccccc2c2ccccc12` [6(5H)-Phenanthridinone] the “Z Score” value (168 h, 3 µM) was 0.6765, the Z score (168 h, 3 µM) was 0.677 and the Activity [6] was “no”.

`Br.NC1CCc2cc(O)c(O)cc2C1` (stereo not shown) [6,7-ADTN hydrobromide] was tested, and the “Z Score” value [7] was 0.357, the Z score [8] was 0.357 and the Activity [4] was “no”.

With `O=C1N=c2cc(Cl)c(Cl)cc2=NC1=O` [6,7-Dichloroquinoxaline-2,3-dione] the “Z Score” value [7] was 0.1274, the Z score [8] was 0.127 and the Activity [4] was “no”.

`NCCCCCC(=O)O` [6-Aminohexanoic acid] was tested, and the Activity was “no”, the “Z Score” value was −2.179 and the Z score was −2.179.

With `COc1cc2c(CCNC(C)=O)c[nH]c2cc1Cl` [6-Chloromelatonin] the “Z Score” value [10] was −1.659, the Z score [8] was −1.659 and the Activity [4] was “no”.

With `Cl.NCC(O)c1cc(O)c(O)cc1F` (stereo not shown) [6-Fluoronorepinephrine hydrochloride] the “Z Score” value was −1.168, the Z score [8] was −1.168 and the Activity [4] was “no”.

With `COc1cc2c(CCNC(C)=O)c[nH]c2cc1O` [6-Hydroxymelatonin] the “Z Score” value [7] was 0.3767, the Z score [3] was 0.377 and the Activity [4] was “no”.

For `Cc1cccc(C#Cc2ccccc2)n1.Cl` [6-Methyl-2-(phenylethynyl)pyridine hydrochloride], the “Z Score” value (168 h, 3 µM) was 0.09366, the Z score (168 h, 3 µM) was 0.094 and the Activity [5] was “no”.

In the case of `O=Nc1ccc2oc(=O)ccc2c1` [6-Nitroso-1,2-beazopyrone], the “Z Score” value is reported as 0.01132.

With `O=Nc1ccc2oc(=O)ccc2c1` [6-Nitroso-1,2-benzopyrone] the Z score [3] was 0.011 and the Activity [5] was “no”.

With `Oc1cc(-c2ccccc2)nc2nc(Cl)ccc12` [7-Chloro-4-hydroxy-2-phenyl-1,8-naphthyridine] the “Z Score” value (168 h, 3 µM) was −0.401, the Z score (168 h, 3 µM) was −0.401 and the Activity [4] was “no”.

With `O=C(O)c1cc(O)c2ccc(Cl)cc2n1` [7-Chlorokynurenic acid] the “Z Score” value was 1.241, the Z score [8] was 1.241 and the Activity [4] was “no”.

`O=[N+]([O-])c1cccc2cn[nH]c12` [7-Nitroindazole (34), 7-Nitroindazole, reference compound] was tested, and the “Z Score” value was −1.349, the Z score [3] was −1.349 and the Activity [5] was “no”.

For `Cn1c(=O)c2c(nc(C=Cc3cccc(Cl)c3)n2C)n(C)c1=O` [8-(3-Chlorostyryl)caffeine], the “Z Score” value (168 h, 3 µM) was −1.214, the Z score (168 h, 3 µM) was −1.214 and the Activity [4] was “no”.

With `Cn1c(=O)c2[nH]c(-c3ccc(S(=O)(=O)O)cc3)nc2n(C)c1=O` [8-(p-Sulfophenyl)theophylline] the “Z Score” value (168 h, 3 µM) was 1.047, the Z score (168 h, 3 µM) was 1.047 and the Activity [2] was “no”.

`Nc1nc2c(nc(Br)n2[C@@H]2O[C@@H]3COP(=O)([O-])O[C@H]3[C@H]2O)c(=O)[nH]1.[Na+]` [8-Bromo-cGMP sodium] was tested, and the “Z Score” value was −1.005, the Z score [1] was −1.005 and the Activity [2] was “no”.

`Cn1c(=O)c2[nH]c(C3CCCC3)nc2n(C)c1=O` [8-Cyclopentyl-1,3-dimethylxanthine] was tested, and the “Z Score” value (168 h, 3 µM) was −0.1248, the Z score (168 h, 3 µM) was −0.125 and the Activity [4] was “no”.

In the case of `CCCn1c(=O)c2[nH]c(C3CCCC3)nc2n(CCC)c1=O` [8-Cyclopentyl-1,3-dipropylxanthine], the “Z Score” value (168 h, 3 µM) is reported as −0.07021, the Z score (168 h, 3 µM) is reported as −0.070 and the Activity [4] is reported as “no”.

With `COCc1nc2c([nH]1)c(=O)n(C)c(=O)n2CC(C)C` [8-Methoxymethyl-3-isobutyl-1-methylxanthine] the “Z Score” value (LOPAC library screen at 3 μM, secondary neurosphere cultures, MTT) was −0.3403, the Z score [3] was −0.340 and the Activity [5] was “no”.

`Cl.Nc1c2c(nc3ccccc13)CCCC2` [9-Amino-1,2,3,4-tetrahydroacridine hydrochloride] was tested, and the Activity was “no”, the “Z Score” value was −1.021 and the Z score was −1.021.

In the case of `Nc1ncnc2c1ncn2C1CCCC1` [9-cyclopentyladenine], the “Z Score” value (168 h, 3 µM) is reported as 0.4988, the Z score (168 h, 3 µM) is reported as 0.499 and the Activity [4] is reported as “no”.

In the case of `CCN(CC)C(C)C(=O)N1c2ccccc2Sc2ccccc21.Cl` (stereo not drawn) [10-(alpha-Diethylaminopropionyl)-phenothiazine hydrochloride], the “Z Score” value is reported as −1.545.
